Peptide text beside a SMILES is read from it. * marks the point of attachment. Cbz = O=C(OCc1ccccc1)*
Legend:
WASp = WASp expression in Meg-01 megakaryocyte cell line (western blot); type: cell-based, human; conditions: Meg-01 cells, treated vs untreated
Experimental: Freshly-isolated platelets were stimulated with 10 μM of TRAP-6 for the indicated time points, followed by lysis. WIP (FIG. 7A) or WASp (FIG. 7B) were immunoprecipitated from the lysates and analyzed by western blot for co-immunoprecipitation, using anti-WASp, anti-WIP or anti-PKCθ antibodies. WASp immunoprecipitates were immunoblotted for WASp ubiquitylation using anti-ubiquitin (Ub) antibody (FIG. 7C). Ubiquitylated WASp appears as a smear of bands above the MW of 65 kDa with a prominent band at ˜81 kDa. […] Blots are representative of three independent experiments. Meg-01 megakaryocyte cell line was activated in the presence (+) or absence (−) of MG132, followed by lysis (FIG. 7E). WASp ubiquitylation was determined by co-immunoprecipitation analysis as in FIG. 7C. FIG. 7F illustrates Meg-01 cells that were transfected with PKCθ-specific siRNA (+) or non-specific (NS) siRNA (−). 24 h later, the cells were stimulated and lysed. PKCθ and WASp protein expression levels were analyzed by western blot with anti-PKCθ and anti-WASp antibodies, and with anti-GAPDH as loading control. Relative protein expression was determined by densitometric analysis and is presented below the corresponding lanes. […] Blots are representative of three independent experiments.
Human primary PBMCs were isolated from whole blood of healthy donors, as previously described (Barda-Saad et al, 2005). […]

WAVE2 = target: T1, WAVE2 (Homo sapiens, UniProt Q9Y6W5); experiment: MST binding, YFP-WAVE2 in HEK 293T cell lysate
T1 construct: expressed in transfected cells; host or cells: HEK 293T, transient transfection; unpurified cell lysate
T1 sequence (Q9Y6W5 whole entry, species assumed): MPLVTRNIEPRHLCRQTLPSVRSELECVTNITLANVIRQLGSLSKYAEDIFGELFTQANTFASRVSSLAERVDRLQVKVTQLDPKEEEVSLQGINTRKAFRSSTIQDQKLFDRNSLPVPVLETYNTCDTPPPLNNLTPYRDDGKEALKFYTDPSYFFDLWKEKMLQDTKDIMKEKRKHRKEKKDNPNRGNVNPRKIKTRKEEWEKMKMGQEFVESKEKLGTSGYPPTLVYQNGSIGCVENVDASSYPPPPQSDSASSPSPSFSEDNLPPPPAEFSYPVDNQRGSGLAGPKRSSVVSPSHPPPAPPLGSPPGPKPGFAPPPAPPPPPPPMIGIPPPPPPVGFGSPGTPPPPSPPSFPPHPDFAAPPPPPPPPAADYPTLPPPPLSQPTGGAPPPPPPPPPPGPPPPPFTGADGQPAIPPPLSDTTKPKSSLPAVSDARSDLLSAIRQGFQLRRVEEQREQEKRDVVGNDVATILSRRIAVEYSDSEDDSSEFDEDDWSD
Experimental: Diluted cell lysates of YFP-WASp/N-WASp/WAVE2-expressing HEK 293T cells were incubated with serially-diluted (100 μM-3 nM) SMCs. The mixed lysates and SMCs were then loaded into standard-treated Monolith™ capillaries and the fluorescence of the samples was measured by the Monolith NT.115 instrument at 60% MST power. Binding curves of WASp with SMC #6 (FIG. 3A), SMC #30 (FIG. 3B), SMC #33 (FIG. 3C), SMC #34 (FIG. 3D) and Y-27632 (FIG. 3E) or of N-WASp (FIG. 3F) or WAVE2 (FIG. 3G) with SMC #34 were generated by the NanoTemper Analysis 2.231 software. Normalized fluorescence (hot fluorescence/initial fluorescence) is plotted as a function of SMC concentration. […]
YFP-tagged WASp was obtained from cell lysates of Human Embryonic Kidney (HEK) 293T, transiently transfected with YFP-WASp/WAVE2/N-WASp by DNA-calcium phosphate co-precipitation as previously described (Reicher et al, 2012). […] After loading into the instrument (Monolith NT.115, NanoTemper), the samples were measured by standard protocols at 60% MST power. […] KD values were determined using the NanoTemper analysis software (NT Analysis 1.5.37 or 2.2.31).
Following this in silico screening, the inventors identified eight SMCs (#6, #23, #24, #25, #30, #32, #33, #34, see Table 1). […] The SMCs that specifically bind the degradation pocket of WASp were further evaluated by the inventors.

SMILES: CC(C)C[C@@H](C=O)NC(=O)[C@H](CC(C)C)NC(=O)[C@H](CC(C)C)NC(=O)OCc1ccccc1 [MG132] (Cbz-Leu-Leu-Leu-aldehyde)
- WASp in whole cell lysates (W.C.L) (WASp): more WASp was detected

SMILES: CC1CCCC(C)N1C(=O)CSc1nnc(COc2cccc3cccnc23)o1 (centres unmarked) [SMC #34, 1-(2,6-dimethylpiperidin-1-yl)-2-[[5-(quinolin-8-yloxymethyl)-1,3,4-oxadiazol-2-yl]sulfanyl]ethanone]
- binding to WAVE2 (WAVE2): no binding
